Key:
Assay type in all cases: functional
CCRF-CEM [1] = assay: Cytotoxicity against human CCRF-CEM cells after 48 hrs by SRB assay; details: for GI50: read-out: GI50
SNB-75 = assay: Cytotoxicity against human SNB75 cells after 48 hrs by SRB assay; details: SNB-75, 48 h; for GI50: read-out: GI50; for CC50: read-out: LC50 (the source's name); for TGI: read-out: TGI
LOX IMVI = assay: Cytotoxicity against human LOXIMVI cells after 48 hrs by SRB assay; details: for GI50: read-out: GI50; for CC50: read-out: LC50 (the source's name); for TGI: read-out: TGI
SK-MEL-28 [2] = assay: Cytotoxicity against human SK-MEL-28 cells after 48 hrs by SRB assay; details: SK-MEL-28, 48 h; for GI50: read-out: GI50; for TGI: read-out: TGI; for CC50: read-out: pLC50 (the source's name) (converted)
TK-10 = assay: Cytotoxicity against human TK10 cells after 48 hrs by SRB assay; details: TK-10, 48 h; for GI50: read-out: GI50
UO-31 = assay: Cytotoxicity against human UO31 cells after 48 hrs by SRB assay; details: UO-31, 48 h; for GI50: read-out: GI50; for TGI: read-out: TGI
RPMI-8226 [3] = assay: Growth inhibition of human RPMI8226 cells assessed as cell growth at 10^-8 M incubated for 48 hrs by sulforhodamine B assay relative to control; details: RPMI-8226, 48 h, read-out: Activity
A549 = assay: Growth inhibition of human A549/ATCC cells assessed as cell growth at 10^-8 M incubated for 48 hrs by sulforhodamine B assay relative to control; details: A549, 48 h, read-out: Activity
HCC 2998 = assay: Growth inhibition of human HCC2998 cells assessed as cell growth at 10^-8 M incubated for 48 hrs by sulforhodamine B assay relative to control; details: HCC 2998, 48 h, read-out: Activity
HCT-116 = assay: Growth inhibition of human HCT116 cells assessed as cell growth at 10^-8 M incubated for 48 hrs by sulforhodamine B assay relative to control; details: HCT-116, 48 h, read-out: Activity
MDA-MB-435 = assay: Growth inhibition of human MDA-MB-435 cells assessed as cell growth at 10^-8 M incubated for 48 hrs by sulforhodamine B assay relative to control; details: MDA-MB-435, 48 h, read-out: Activity
SK-MEL-28 [4] = assay: Growth inhibition of human SK-MEL-28 cells assessed as cell growth at 10^-8 M incubated for 48 hrs by sulforhodamine B assay relative to control; details: SK-MEL-28, 48 h, read-out: Activity
NCI/ADR-RES = assay: Growth inhibition of human NCI/ADR-RES cells assessed as cell growth at 10^-8 M incubated for 48 hrs by sulforhodamine B assay relative to control; details: read-out: Activity
SK-OV-3 = assay: Growth inhibition of human SKOV3 cells assessed as cell growth at 10^-8 M incubated for 48 hrs by sulforhodamine B assay relative to control; details: SK-OV-3, 48 h, read-out: Activity
CCRF-CEM [5] = assay: Growth inhibition of human CCRF-CEM cells assessed as cell growth at 10^-7 M incubated for 48 hrs by sulforhodamine B assay relative to control; details: read-out: Activity
SF-268 [6] = assay: Growth inhibition of human SF268 cells assessed as cell growth at 10^-7 M incubated for 48 hrs by sulforhodamine B assay relative to control; details: SF-268, 48 h, read-out: Activity
UACC-257 = assay: Growth inhibition of human UACC257 cells assessed as cell growth at 10^-7 M incubated for 48 hrs by sulforhodamine B assay relative to control; details: UACC-257, 48 h, read-out: Activity
RPMI-8226 [7] = assay: Growth inhibition of human RPMI8226 cells assessed as cell growth at 10^-6 M incubated for 48 hrs by sulforhodamine B assay relative to control; details: RPMI-8226, 48 h, read-out: Activity
SR = assay: Growth inhibition of human SR cells assessed as cell growth at 10^-6 M incubated for 48 hrs by sulforhodamine B assay relative to control; details: read-out: Activity
EKVX = assay: Growth inhibition of human EKVX cells assessed as cell growth at 10^-6 M incubated for 48 hrs by sulforhodamine B assay relative to control; details: read-out: Activity
HOP-92 = assay: Growth inhibition of human HOP92 cells assessed as cell growth at 10^-6 M incubated for 48 hrs by sulforhodamine B assay relative to control; details: HOP-92, 48 h, read-out: Activity
NCI-H322M = assay: Growth inhibition of human NCI-H322M cells assessed as cell growth at 10^-6 M incubated for 48 hrs by sulforhodamine B assay relative to control; details: read-out: Activity
HCT-15 = assay: Growth inhibition of human HCT15 cells assessed as cell growth at 10^-6 M incubated for 48 hrs by sulforhodamine B assay relative to control; details: HCT-15, 48 h, read-out: Activity
SW-620 = assay: Growth inhibition of human SW620 cells assessed as cell growth at 10^-6 M incubated for 48 hrs by sulforhodamine B assay relative to control; details: SW-620, 48 h, read-out: Activity
Malme-3M = assay: Growth inhibition of human MALME-3M cells assessed as cell growth at 10^-6 M incubated for 48 hrs by sulforhodamine B assay relative to control; details: read-out: Activity
OVCAR-3 = assay: Growth inhibition of human OVCAR3 cells assessed as cell growth at 10^-6 M incubated for 48 hrs by sulforhodamine B assay relative to control; details: OVCAR-3, 48 h, read-out: Activity
COLO 205 = assay: Growth inhibition of human COLO205 cells assessed as cell growth at 10^-5 M incubated for 48 hrs by sulforhodamine B assay relative to control; details: COLO 205, 48 h, read-out: Activity
SF-268 [8] = assay: Growth inhibition of human SF268 cells assessed as cell growth at 10^-5 M incubated for 48 hrs by sulforhodamine B assay relative to control; details: SF-268, 48 h, read-out: Activity
OVCAR-4 = assay: Growth inhibition of human OVCAR4 cells assessed as cell growth at 10^-5 M incubated for 48 hrs by sulforhodamine B assay relative to control; details: OVCAR-4, 48 h, read-out: Activity
DU-145 = assay: Growth inhibition of human DU145 cells assessed as cell growth at 10^-4 M incubated for 48 hrs by sulforhodamine B assay relative to control; details: DU-145, 48 h, read-out: Activity
MOLT-4 = assay: Growth inhibition of human MOLT4 cells assessed as cell growth at 10^-5 M incubated for 48 hrs by sulforhodamine B assay relative to control; details: MOLT-4, 48 h, read-out: Activity
[9] = read-out: pLC50 (the source's name) (converted)
[10] = read-out: LC50 (the source's name)

C#C[C@@]1(O)[C@@H](CO)O[C@@H](n2cc(I)c3c(N)ncnc32)[C@@H]1O
GI50 (CCRF-CEM [1]): 249 to 295 nM
TGI (CCRF-CEM [1]; read-out: TGI): > 100000 nM
CC50 (CCRF-CEM [1]; [9]): > 100000 nM
TGI (CCRF-CEM [1]; read-out: pTGI): > 100000 nM
GI50 (SNB-75): 373 to 559 nM
CC50 (SNB-75): 5530 to 5920 nM
TGI (SNB-75): 1810 to 2180 nM
GI50 (LOX IMVI): 39.7 to 81.2 nM
CC50 (LOX IMVI): > 100000 nM
TGI (LOX IMVI): 241 to 1220 nM
GI50 (SK-MEL-28 [2]): 1560 to 2460 nM
TGI (SK-MEL-28 [2]): 9270 to 14000 nM
CC50 (SK-MEL-28 [2]): > 100000 nM
GI50 (TK-10): 551 to 572 nM
CC50 (TK-10; [10]): > 100000 nM
TGI (TK-10; read-out: TGI): 5510 nM
TGI (TK-10; read-out: pTGI (converted)): 5500 nM
GI50 (UO-31): 79.1 to 103 nM
CC50 (UO-31; [10]): > 100000 nM
TGI (UO-31): 3070 to 3300 nM
growth at 0.01 µM (RPMI-8226 [3]): 95 to 96%
growth at 0.01 µM (A549): 90 to 92%
growth at 0.01 µM (HCC 2998): 87 to 90%
growth at 0.01 µM (HCT-116): 83 to 95%
growth at 0.01 µM (MDA-MB-435): 83 to 93%
growth at 0.01 µM (SK-MEL-28 [4]): 88 to 97%
growth at 0.01 µM (NCI/ADR-RES): 86 to 88%
growth at 0.01 µM (SK-OV-3): 60 to 85%
growth at 0.1 µM (CCRF-CEM [5]): 72 to 74%
growth at 0.1 µM (SF-268 [6]): 70 to 73%
growth at 0.1 µM (UACC-257): 81 to 88%
growth at 1 µM (RPMI-8226 [7]): 23 to 27%
growth at 1 µM (SR): 21 to 24%
growth at 1 µM (EKVX): 33 to 38%
growth at 1 µM (HOP-92): 10%
growth at 1 µM (NCI-H322M): 37 to 44%
growth at 1 µM (HCT-15): 11 to 20%
growth at 1 µM (SW-620): 12 to 17%
growth at 1 µM (Malme-3M): 39 to 61%
growth at 1 µM (OVCAR-3): 24 to 33%
growth at 10 µM (COLO 205): -62%
growth at 10 µM (SF-268 [8]): 7%
growth at 10 µM (OVCAR-4): 9 to 13%
growth at 100 µM (DU-145): 7 to 10%

C#C[C@@]1(O)[C@@H](CO)O[C@@H](n2cc(Cl)c3c(N)ncnc32)[C@@H]1O
GI50 (CCRF-CEM [1]): 239 to 257 nM
CC50 (CCRF-CEM [1]; [10]): > 100000 nM
TGI (CCRF-CEM [1]; read-out: TGI): > 100000 nM
TGI (CCRF-CEM [1]; read-out: pTGI): > 100000 nM
GI50 (SNB-75): 258 to 310 nM
CC50 (SNB-75): 1800 to 3210 nM
TGI (SNB-75): 574 to 888 nM
GI50 (LOX IMVI): 36 to 81.4 nM
CC50 (LOX IMVI): 756 to 871 nM
TGI (LOX IMVI): 226 to 284 nM
GI50 (SK-MEL-28 [2]): 469 to 706 nM
TGI (SK-MEL-28 [2]): 57100 to 89400 nM
CC50 (SK-MEL-28 [2]): > 100000 nM
GI50 (TK-10): 302 to 334 nM
TGI (TK-10; read-out: TGI): 891 to 1720 nM
CC50 (TK-10; [9]): > 100000 nM
GI50 (UO-31): 153 to 173 nM
TGI (UO-31): 472 to 1780 nM
CC50 (UO-31; [9]): > 100000 nM
growth at 0.01 µM (RPMI-8226 [3]): 99 to 100%
growth at 0.01 µM (A549): 98 to 105%
growth at 0.01 µM (HCC 2998): 92 to 99%
growth at 0.01 µM (HCT-116): 67 to 73%
growth at 0.01 µM (MDA-MB-435): 88 to 89%
growth at 0.01 µM (SK-MEL-28 [4]): 94%
growth at 0.01 µM (NCI/ADR-RES): 77 to 82%
growth at 0.01 µM (SK-OV-3): 84 to 94%
growth at 0.1 µM (CCRF-CEM [5]): 76 to 80%
growth at 0.1 µM (SF-268 [6]): 77 to 80%
growth at 0.1 µM (UACC-257): 79 to 90%
growth at 1 µM (SR): 5 to 6%
growth at 1 µM (EKVX): 10%
growth at 1 µM (HOP-92): 27 to 31%
growth at 1 µM (NCI-H322M): 13 to 23%
growth at 1 µM (HCT-15): 1%
growth at 1 µM (SW-620): 2 to 7%
growth at 1 µM (OVCAR-3): 5 to 7%
growth at 10 µM (MOLT-4): 2%
growth at 10 µM (SF-268 [8]): 2 to 7%

— ChEMBL document CHEMBL4270599, “Synthesis of a 3'-C-ethynyl-β-d-ribofuranose purine nucleoside library: Discovery of C7-deazapurine analogs as potent antiproliferative nucleosides” (Eur J Med Chem, 2018)
